Laboratory results taken from US12729377B2, “RNAi agents and compositions for inhibiting expression of angiopoietin-like 3 (ANGPTL3), and methods of use” (Arrowhead Pharmaceuticals, Inc., priority 2017, dated 2026).
In the oligonucleotide strings, read from the 5' end, every base follows the letter of its sugar. An asterisk marks phosphorothioate; unmarked linkages are phosphodiester. Other units and linkages are bracketed, terminal groups are in braces. A string of capitals states the bases alone. {NAG37} = tridentate N-acetyl-galactosamine targeting ligand, structure (NAG37)s; [invAb] = inverted abasic unit; m = 2'-O-methyl; f = 2'-fluoro

Key:
[1] = tested on: ANGPTL3 gene; assay: Example 8: serum triglycerides in cynomolgus monkeys; type: in vivo, cynomolgus macaque (Macaca fascicularis); conditions: 3.0 mg/kg single SC injection day 1, cynos, n=2
Experimental: (§1) Additional ANGPTL3 RNAi agents were evaluated in cynomolgus monkeys. On day 1, cynomolgus macaque (Macaca fascicularis) primates (also referred to herein as “cynos”) were administered a single subcutaneous injection of 0.3 mL/kg (approximately 1-2 mL volume, depending on animal mass) containing 3.0 mg/kg of one of ANGPTL3 RNAi agent AD05577, AD05307, AD05488, AD05654, or AD05659, each formulated in saline.
(§2) Two (2) cynos in each group were tested (n=2). Blood samples were drawn and serum samples were analyzed on days −8 (pre-dose), 1 (pre-dose), 8, 15, 22, 29, and 36. Cynos were fasted overnight prior to each collection. ANGPTL3 protein levels in serum were measured by ELISA assay (R&D Systems), according to the manufacturer's recommendations. Triglycerides, total cholesterol, high-density lipoprotein (HDL), and low-density lipoprotein (LDL) in serum were measured on a Cobas® Integra 400 (Roche Diagnostics), according to the manufacturer's recommendations.
(§3) The ANGPTL3 protein levels, triglyceride levels, total cholesterol levels, HDL levels, and LDL levels for each animal were normalized. For normalization, the level of ANGPTL3 protein, triglyceride, HDL, and total cholesterol, respectively, for each animal at a time point, was divided by the average pre-treatment level of expression in that animal (in this case at days −8, and 1 (pre-dose)) to determine the ratio of expression “normalized to pre-treatment.”

[2] = tested on: ANGPTL3 gene; assay: Example 8: serum HDL in cynomolgus monkeys; type: in vivo, cynomolgus macaque (Macaca fascicularis); conditions: 3.0 mg/kg single SC injection day 1, cynos, n=2
Experimental: as §1, §2, §3

[3] = tested on: ANGPTL3 protein; assay: Example 9: serum ANGPTL3 protein by ELISA in cynomolgus monkeys; type: in vivo, cynomolgus macaque (Macaca fascicularis); conditions: for Average ANGPTL3 Protein Normalized to Pre-Treatment: 2.0 mg/kg single SC injection day 1, cynos, n=3
Experimental: Additional ANGPTL3 RNAi agents were evaluated in cynomolgus monkeys. On day 1, cynomolgus macaque (Macaca fascicularis) primates (also referred to herein as “cynos”) were administered a single subcutaneous injection of 0.3 mL/kg (approximately 2-3 mL volume, depending on animal mass) containing 2.0 mg/kg of an ANGPTL3 RNAi agent, which included either AD05488, AD05743, AD05775, or AD05841, each formulated in saline. […] ANGPTL3 RNAi agents AD05488, AD05743, and AD05775 included nucleotide sequences designed to target position 304 of the ANGPTL3 gene. ANGPTL3 RNAi agent AD05841 included nucleotide sequences designed to target position 1035 of the ANGPTL3 gene.
as §2, with “Three (3)” for “Two (2)”, “(n=3).” for “(n=2).”, “−14 (predose), −7 (predose),” for “−8 (pre-dose),”, “35.” for “36.”
The ANGPTL3 protein levels, triglyceride levels, total cholesterol levels, HDL levels, and LDL levels for each animal were normalized. For normalization, the level of ANGPTL3 protein, triglyceride, HDL, and total cholesterol, respectively, for each animal at a time point, was divided by the average pre-treatment level of expression in that animal (in this case at days −14, −7, and 1) to determine the ratio of expression “normalized to pre-treatment.”

[4] = tested on: ANGPTL3 protein; assay: Example 8: serum ANGPTL3 protein by ELISA in cynomolgus monkeys; type: in vivo, cynomolgus macaque (Macaca fascicularis); conditions: for Avg ANGPTL3 protein normalized to pre-treatment: 3.0 mg/kg single SC injection day 1, cynos, n=2; for reduction in ANGPTL3 protein compared to pre-treatment: all measured time points, single 3.0 mg/kg subcutaneous, cynomolgus monkeys
Experimental: as §1, §2, §3

[5] = tested on: ANGPTL3 gene; assay: Example 2: serum total cholesterol in mice; type: in vivo
Experimental: To assess the in vivo activity of ANGPTL3 RNAi agents that are designed to target different positions on the ANGPTL3 gene, six- to eight-week-old female C57bl/6 mice were used. Pre-dose serum samples were taken at day −1 after a four hour fast. At day 1, each mouse was given a single subcutaneous administration of 200 μl containing either 3 mg/kg (mpk) of an ANGPTL3 RNAi agent in D5W (dextrose in 5% water), or control (D5W) with no RNAi agent, according to the dosing groups recited in Table 7.
Each of the RNAi agents included a modified sequence and an N-acetyl-galactosamine-containing targeting ligand conjugated to the 5′ terminal end of the sense strand. (See Tables 3, 4, and 5 for modified sequences and targeting ligand structures). The injections were performed between the skin and muscle (i.e. subcutaneous injections) into the loose skin over the neck and shoulder area. Three (3) mice in each group were tested (n=3). Serum was collected on days 8, […], 22, 29, and day 36 (for Groups 1 and 5-11 only). Mice were fasted for four hours prior to each collection. ANGPTL3 protein levels in serum were measured by ELISA assay (R&D Systems), according to the manufacturer's recommendations. Triglycerides, high-density lipoprotein (HDL), and total cholesterol in serum were measured on a Cobas® Integra 400 (Roche Diagnostics), according to the manufacturer's recommendations.
The ANGPTL3 protein levels, triglyceride levels, HDL levels, and total cholesterol levels for each animal were normalized. For normalization, the level of ANGPTL3 protein, triglyceride, HDL, and total cholesterol, respectively, for each animal at a time point, was divided by the pre-treatment level of expression in that animal (in this case at day −1) to determine the ratio of expression “normalized to pre-treatment.” Expression at a specific time point was then normalized to the D5W control group by dividing the “normalized to pre-treatment” ratio for an individual animal by the mean “normalized to pretreatment” ratio of all mice in the D5W control group.

[6] = Day 8, 3.0 mg/kg single subcutaneous dose on day 1, female C57bl/6 mice
[7] = Day 13, 3.0 mg/kg single subcutaneous dose on day 1, female C57bl/6 mice
[8] = Day 22, 3.0 mg/kg single subcutaneous dose on day 1, female C57bl/6 mice
[9] = Day 29, 3.0 mg/kg single subcutaneous dose on day 1, female C57bl/6 mice
[10] = Day 36, 3.0 mg/kg single subcutaneous dose on day 1, female C57bl/6 mice

Substance	Avg TG normalized to pre-treatment ([1]; Day 8)	Avg TG normalized to pre-treatment ([1]; Day 15)	Avg TG normalized to pre-treatment ([1]; Day 22)	Avg TG normalized to pre-treatment ([1]; Day 29)	Avg TG normalized to pre-treatment ([1]; Day 36)	Average HDL Normalized to Pre-Treatment ([2]; Day 8)	Average HDL Normalized to Pre-Treatment ([2]; Day 15)	Average HDL Normalized to Pre-Treatment ([2]; Day 22)	Average HDL Normalized to Pre-Treatment ([2]; Day 29)	Average HDL Normalized to Pre-Treatment ([2]; Day 36)	Avg ANGPTL3 protein normalized to pre-treatment ([4]; Day 8)	Avg ANGPTL3 protein normalized to pre-treatment ([4]; Day 15)	Avg ANGPTL3 protein normalized to pre-treatment ([4]; Day 22)	Avg ANGPTL3 protein normalized to pre-treatment ([4]; Day 29)	Avg ANGPTL3 protein normalized to pre-treatment ([4]; Day 36)	reduction in ANGPTL3 protein compared to pre-treatment [4]	Avg Total Chol (Average Total Cholestrol Normalized to Pre-Treatment and Control) [5, 6]	Avg Total Chol (Average Total Cholestrol Normalized to Pre-Treatment and Control) [5, 7]	Avg Total Chol (Average Total Cholestrol Normalized to Pre-Treatment and Control) [5, 8]	Avg Total Chol (Average Total Cholestrol Normalized to Pre-Treatment and Control) [5, 9]	also measured
AD05488: RNAi agent duplex: antisense AM07235-AS, sense AM07234-SS (antisense mU*fA*mC*fUmGfAmUfCmAfAmAfUmAfUmGfUmUfGmAfG*mC; sense {NAG37}*[invAb]*mGmCmUmCmAmAmCmAfUfAfUmUmUmGmAmUmCmAmGmUmA*[invAb])	0.727	0.586	0.399	0.534	0.364	0.832	0.695	0.688	0.657	0.622	0.423	0.334	0.343	0.276	0.229	reduction	–	–	–	–	Average ANGPTL3 Protein Normalized to Pre-Treatment ([3]; Day 8): 0.232; Average ANGPTL3 Protein Normalized to Pre-Treatment ([3]; Day 15): 0.240; Average ANGPTL3 Protein Normalized to Pre-Treatment ([3]; Day 22): 0.239; Average ANGPTL3 Protein Normalized to Pre-Treatment ([3]; Day 29): 0.258; Average ANGPTL3 Protein Normalized to Pre-Treatment ([3]; Day 35): 0.332; reduction in ANGPTL3 protein compared to pre-treatment ([3]; each of the measured time points, single 2.0 mg/kg subcutaneous, cynomolgus monkeys): reduction
AD05308: RNAi agent duplex: antisense AM07003-AS, sense AM07002-SS (chain 1 mU*fG*mU*fUmGfAmAfUmUfAmAfUmGfUmCfCmAfUmGfG*mA; chain 2 {NAG37}*[invAb]*mUmCmCmAmUmGmGmAfCfAfUmUmAmAmUmUmCmAmAmCmA*[invAb])	–	–	–	–	–	–	–	–	–	–	–	–	–	–	–	–	0.671	0.645	0.621	0.669	Avg Total Chol (Average Total Cholestrol Normalized to Pre-Treatment and Control) [5, 10]: 0.905
AD05307: RNAi agent duplex: antisense AM07001-AS, sense AM07000-SS (chain 1 mU*fU*mU*fGmAfAmUfUmAfAmUfGmUfCmCfAmUfGmGmG*mC; chain 2 {NAG37}*[invAb]*mGmCmCmCmAmUmGmGfAfCfAmUmUmAmAmUmUmCmAmAmA*[invAb])	1.157	1.058	0.895	0.969	0.806	1.007	0.946	0.879	0.998	0.863	0.486	0.402	0.726	0.518	0.392	reduction	0.649	0.570	0.628	0.753	Avg Total Chol (Average Total Cholestrol Normalized to Pre-Treatment and Control) [5, 10]: 0.755
